Consider one compound from patent US20090306093A1, “METHOD FOR TREATING PATIENT HAVING BENIGN PROSTATE HYPERPLASIA” (KAOHSIUNG MEDICAL UNIVERSITY, priority 2008, published 2009).

Experiment [1] has as its system cGMP. The experiment in a line: Determination of cGMP in rat isolated prostate (radioimmunoassay). To be noted: for cGMP levels: 1 hour. On the procedure:
(§1) Isolated prostate strips from Wistar rats were prepared to determine prostate levels of cGMP and cAMP. Briefly, prostate strips were respectively incubated with KMUP-1 (10-100 μM), sildenafil (100 μM), and zaprinast (100 μM) in 10 mL Tyrode solution aerated with 95% O2 and 5% CO2 for 1 hour. To examine the possible mechanisms of action of KMUP-1, the rat prostate was pretreated with ODQ (10 μM, sGC inhibitor) and SQ22536 (9-(tetrahydro-2-furanyl)-9H-purin-6-amine, 10 μM, adenylyl cyclase inhibitor) for 30 minutes before KMUP-1 was added. After the incubation, the prostate tissues were extracted with 1 mL of 0.1 N HCl. The extracts were then lyophilized for a further measurement of cyclic GMP or cyclic AMP of each sample, using commercially available radioimmunoassay kits (Amersham Pharmacia Biotech, Buckinghamshire, England).

In experiment [2] the test system is cAMP. Kind of experiment: Determination of cAMP in rat isolated prostate (radioimmunoassay). To be noted: for cAMP levels: 1 hour. How it is done: as §1
For experiment [3], the system named is PDE5A. The experiment in a line: Western blot of PDE5A expression in rat prostate. To be noted: KMUP-1 10-100 μM. On the procedure:
Prostate strips were incubated with KMUP-1 (10-100 μM), sildenafil (100 μM) and zaprinast (100 μM) in 10 mL Tyrode solution aerated with 95% O2 and 5% CO2 for 1 hour. To examine the possible mechanisms of KMUP-1 action, the rat prostate were pretreated with ODQ (10 μM), SQ22536 (10 μM) and RP-8pCPT-cGMPs (10 μM) for 30 minutes prior to the addition of KMUP-1 (100 μM).
In order to examine the expression of Rho kinase in prostate, the prostate strips were pre-incubated with phenylephrine (10 μM) for 30 minutes. After a pre-treatment of phenylephrine, KMUP-1 (10-100 μM) and Y-27632 (10 μM) were further incubated for 30 minutes. After the incubation time, the prostate were extracted with protein extraction reagent (Pierce Biotechnology, Inc., Rockford, Ill., USA.). The PZ-HPV-7 cells were incubated with and without KMUP-1 (0.1-10 μM) at 30 minutes, 8 and 24 hours. They were then washed rapidly with ice-cold PBS, incubated with protein extraction reagent, and scraped from the plates. The prostate tissues and cells were sonicated three times for 10 second each time and centrifuged at 13,000 rpm at 4° C. for 30 minutes. The protein concentrations of supernatants were determined, using bovine serum albumin as the standard. […] The intensity of the bands was measured by densitometry.
On the technique in general: Immunoblotting shows a protein as a band on a membrane.

Experiment [4] concerns the target T1, a1A-adrenoceptor (Rattus norvegicus, UniProt P43140).
T1 construct: The submaxillary glands, spleen, and aorta of rats were separately homogenized; from tissue; host or cells: Wistar rat submaxillary gland membranes
T1 sequence (P43140 1-466): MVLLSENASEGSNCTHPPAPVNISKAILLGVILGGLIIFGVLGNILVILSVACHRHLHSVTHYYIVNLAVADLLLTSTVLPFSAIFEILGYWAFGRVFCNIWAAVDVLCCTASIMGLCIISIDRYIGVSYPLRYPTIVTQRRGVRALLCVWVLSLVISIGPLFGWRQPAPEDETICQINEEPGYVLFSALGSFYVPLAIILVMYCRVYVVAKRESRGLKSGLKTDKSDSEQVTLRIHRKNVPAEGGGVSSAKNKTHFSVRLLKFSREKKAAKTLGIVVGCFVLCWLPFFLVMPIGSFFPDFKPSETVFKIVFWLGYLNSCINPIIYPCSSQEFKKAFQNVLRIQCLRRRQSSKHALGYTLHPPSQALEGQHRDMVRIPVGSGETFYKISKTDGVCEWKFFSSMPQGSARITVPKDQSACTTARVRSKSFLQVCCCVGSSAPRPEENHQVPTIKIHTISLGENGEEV
Kind of experiment: [3H]-prazosin competition binding, rat submaxillary gland membranes. On the procedure: Wistar rats were obtained from National Laboratory Animal Breeding and Research Center (Taipei, Taiwan) and housed under a constant temperature and controlled illumination. The submaxillary glands, spleen, and aorta of rats were separately homogenized for 30 seconds with a Kinematica polytron in 20 volumes of ice-cold TE buffer (10 mM Tris HCl, 1 mM EDTA, 0.1 mM ascorbic acid, pH 7.4). The homogenate was filtered under pressure through muslin and the filtrate was centrifuged at 1,000 g for 10 minutes. The supernatant was centrifuged again at 10,000 g for 12 minutes at 4° C. The second supernatant was centrifuged at 30,000 g for 15 minutes at 4° C., and the final pellet was resuspended in the assay buffer (75 mM Tris HCl, 25 mM MgCl2, pH 7.4). Protein content was determined by Bradford's method.
[^3H]-prazosin, KMUP-1 and membranes (200-300 μg) were incubated for 60 minutes at 25° C. with or without the addition of nonspecific binding agents, in a 75 mM Tris HCl buffer with 25 mM MgCl2, making a final volume of 500 μL. In this experiment, non-specific binding was defined by use of 10 μM phentolamine. In competitive-binding experiments, the competing agent was added directly to the incubation mixture. The incubation was terminated by adding 1 mL of ice cold assay buffer followed by immediate filtration through Whatman GF/C glass fiber filters supported on a 12-port filter manifold (Whatman Int. Ltd, Springfield Mill, Maidstone, UK). The filters were immediately washed 3 times with 5 mL of ice-cold assay buffer and dried in an oven at 60° C. for 2 hours before adding 5 mL of Triton-toluene based scintillation fluid. Membrane-bound radioligand trapped in the filters was counted in a Beckman LS6500 scintillation system (Fullerton, Calif.) with an efficiency of 45%. In each experiment, nonspecifically bound radioligand agents were measured by incubating membrane protein. Specific binding was then obtained by deducting this value from the total binding of radioligand agents for each sample.

As for `Cn1c(=O)c2c(ncn2CCN2CCN(c3ccccc3Cl)CC2)n(C)c1=O` [KMUP-1, 7-[2-[4-(2-Chlorobenzene)piperazinyl]ethyl]-1,3-dimethyl xanthine], the cGMP levels in experiment [1] (10 μM) is given as 3.50±0.58 pmol mg^−1 protein; in experiment [1] (100 μM), 7.50±0.79 pmol mg^−1 protein. Besides, the “accumulation of cGMP” value in experiment [1] (KMUP-1 100 μM in the presence of ODQ 10 μM) was 2.54±0.73 pmol mg^−1 protein. In addition, the cAMP levels in experiment [2] (10 μM) stood at 1.74±0.51 pmol mg^−1 protein; in experiment [2] (100 μM) it was 2.82±0.42 pmol mg^−1 protein. The “accumulation of cAMP” value in experiment [2] (KMUP-1 100 μM in the presence of SQ22536 10 μM) is on record as 2.16±0.79 pmol mg^−1 protein. Moreover, the “expression of PDE5A” value in experiment [3] was “mildly inhibits”. Further, the “Selective Ratio a1A/a1B” value in experiment [4] is listed as 5. Also, the “Selective Ratio a1A/a1D” value in experiment [4] is 1. The Ki in experiment [4] (rat submaxillary glands, [3H]-prazosin, read-out: Receptor Affinity (pKi) a1A (converted)) was 20.4 nM.
